From US6812223B2, “Crystalline glucosamine sulfate metal salts and processes for preparing the same” (Nicholas Piramal India Limited, priority 2000, dated 2004)

Assay: Estimation of metal content in the mixed glucosamine sulphate metal salt (Inductively Coupled Plasma Method)
Assay type: physicochemical
Conditions: ICP; for Sodium content: measured at 589.592 nm; for Potassium content: measured at 766.491 nm
Method: Estimation of Metal Content in the Mixed Glucosamine Sulphate Metal Salt The sodium content in the mixed glucosamine sulphate sodium salt or the potassium content in the mixed glucosamine sulphate potassium salt respectively is estimated using Inductively Coupled Plasma Method. The sodium content was measured at 589.592 nm and the potassium content was measured at 766.491 nm. [table]

Row | Substance | Sodium content | Sodium content (listed as compound I (M=Na)) | Potassium content | Potassium content (listed as compound I (M+K))
1 | Glucosamine Sulphate Sodium Salt (Low Sodium Content) [Example 1] | 4.22% | 4.22% |  | 
2 | Glucosamine Sulphate Potassium Salt (Low Potassium Content) [Example 2] |  |  | 7.16% | 7.16%
